Data published in ChEMBL document CHEMBL1132518, “Symmetrical anhydride-type serine protease inhibitors: structure-activity relationship studies of human chymase inhibitors” (Bioorg Med Chem Lett, 1999).

What was measured:
Chymase = molecular target: T1, Chymase (Homo sapiens, UniProt P23946); experiment: Inhibitory activity against human chymase (h-chymase)
T1 sequence (P23946 whole entry): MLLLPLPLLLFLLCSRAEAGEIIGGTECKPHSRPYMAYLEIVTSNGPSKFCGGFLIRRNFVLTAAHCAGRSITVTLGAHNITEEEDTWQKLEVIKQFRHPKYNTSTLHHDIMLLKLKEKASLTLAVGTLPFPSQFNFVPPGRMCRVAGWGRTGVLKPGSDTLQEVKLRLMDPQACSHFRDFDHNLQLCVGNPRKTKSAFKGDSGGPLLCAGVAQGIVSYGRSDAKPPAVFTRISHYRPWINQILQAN

Cathepsin G = molecular target: T2, Cathepsin G (Homo sapiens, UniProt P08311); experiment: Inhibitory activity against human leukocyte cathepsin G (h-CG)
T2 sequence (P08311 whole entry): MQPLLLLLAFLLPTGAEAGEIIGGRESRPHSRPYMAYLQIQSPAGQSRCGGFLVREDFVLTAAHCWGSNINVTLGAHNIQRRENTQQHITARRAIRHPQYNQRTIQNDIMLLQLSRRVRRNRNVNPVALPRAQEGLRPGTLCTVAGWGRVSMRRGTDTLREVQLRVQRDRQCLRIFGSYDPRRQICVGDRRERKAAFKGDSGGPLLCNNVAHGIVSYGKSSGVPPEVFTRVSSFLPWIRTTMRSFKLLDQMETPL

## CC(C)(C(=O)OC(=O)C(C)(C)C(CCc1ccccc1)NC(=O)c1ccc(C#N)cc1)C(CCc1ccccc1)NC(=O)c1ccc(C#N)cc1 (stereo unspecified)
Chymase
  IC50: 0.27 µM

## CCCC(NC(=O)c1ccccc1)C(C)(C)C(=O)OC(=O)C(C)(C)C(CCC)NC(=O)c1ccccc1 (stereo unspecified)
Chymase
  IC50: 0.058 µM

## O=C(CC(CCc1ccccc1)NC(=O)c1ccccc1)OC(=O)CC(CCc1ccccc1)NC(=O)c1ccccc1 (stereo unspecified)
Chymase
  IC50: > 1000 µM

## CCCCCC(NC(=O)CCC)C(C)(C)C(=O)OC(=O)C(C)(C)C(CCCCC)NC(=O)CCC (stereo unspecified)
Cathepsin G
  IC50: 1.6 µM
Chymase
  IC50: 29 µM

## CC(C)(C(=O)OC(=O)C(C)(C)C(NC(=O)c1ccc(C#N)cc1)C1CC=CCC1)C(NC(=O)c1ccc(C#N)cc1)C1CC=CCC1 (stereo unspecified)
Cathepsin G
  IC50: 0.069 µM
Chymase
  IC50: 0.13 µM

## CCC(NC(=O)c1ccccc1)C(C)(C)C(=O)OC(=O)C(C)(C)C(CC)NC(=O)c1ccccc1 (stereo unspecified)
Chymase
  IC50: 0.037 µM

## CC(C)(CNC(=O)c1ccccc1)C(=O)OC(=O)C(C)(C)CNC(=O)c1ccccc1
Chymase
  IC50: 3 µM

## O=C(CCNC(=O)c1ccccc1)OC(=O)CCNC(=O)c1ccccc1
Cathepsin G
  IC50: 3.1 µM
Chymase
  IC50: 40 µM

## CC(C)(C(=O)OC(=O)C(C)(C)C(NC(=O)c1ccc(C#N)cc1)c1ccccc1)C(NC(=O)c1ccc(C#N)cc1)c1ccccc1 (stereo unspecified)
Chymase
  IC50: 13 µM

## CCCCCCC(NC(=O)c1ccccc1)C(C)(C)C(=O)OC(=O)C(C)(C)C(CCCCCC)NC(=O)c1ccccc1 (stereo unspecified)
Chymase
  IC50: 0.032 µM

## CCCCC(NC(=O)c1ccccc1)C(C)(C)C(=O)OC(=O)C(C)(C)C(CCCC)NC(=O)c1ccccc1 (stereo unspecified)
Chymase
  IC50: 0.005 µM

## Cc1ccccc1C(NC(=O)c1ccc(C#N)cc1)C(C)(C)C(=O)OC(=O)C(C)(C)C(NC(=O)c1ccc(C#N)cc1)c1ccccc1C (stereo unspecified)
Chymase
  IC50: 8.7 µM

## CC(C)(C(=O)OC(=O)C(C)(C)C(NC(=O)c1ccc(C#N)cc1)c1ccccc1Cl)C(NC(=O)c1ccc(C#N)cc1)c1ccccc1Cl (stereo unspecified)
Chymase
  IC50: 47 µM

## CCCCCC(NC(=O)c1ccccc1)C(C)(C)C(=O)OC(=O)C(C)(C)C(CCCCC)NC(=O)c1ccccc1 (stereo unspecified)
Chymase
  IC50: 0.013 µM

## CC(C)(C(=O)OC(=O)C(C)(C)C(CCc1ccccc1)NC(=O)c1ccccc1)C(CCc1ccccc1)NC(=O)c1ccccc1 (single isomer, unassigned; (+))
Chymase
  IC50: 0.091 µM

## CCCC(=O)NC(CCc1ccccc1)C(C)(C)C(=O)OC(=O)C(C)(C)C(CCc1ccccc1)NC(=O)CCC (stereo in doubt; 9 (-))
Chymase
  IC50: 0.0056 µM

## CC(C)(C(=O)OC(=O)C(C)(C)C(CCc1ccccc1)NC(=O)c1ccccc1)C(CCc1ccccc1)NC(=O)c1ccccc1 (stereo in doubt; 9)
Chymase
  IC50: 0.02 µM

## CCCC(=O)NC(CCc1ccccc1)C(C)(C)C(=O)OC(=O)C(C)(C)C(CCc1ccccc1)NC(=O)CCC (stereo in doubt; 15)
Chymase
  IC50: 2.6 µM
